The values that follow come from US5932217A, “Peptides which inhibit adhesion between leukocytes and endothelial cells” (priority 1994, dated 1999).

The test system of data set [1] is rabbits challenged intracisternally with pneumococcus strain R6. Nature of the data set: Rabbit model for meningitis, intravenous FHA or peptides. It counts as in vivo. The following applies: for Lactate / Protein: CSF at 6 hours. As to the method: The rabbit model was performed according to an established protocol. Specific pathogen free, New Zealand white rabbits (2 kg; Hare Marland, Nutley, N.J.) were anesthetized with valium (2.5 mg/kg, subcutaneously, Hoffman-LaRoche, Nutley, N.J.), ketamine (35 mg/kg, intramuscularly, Aveco, Fort Dodge, Iowa) and xylazine (5 mg/kg, intramuscularly, Miles Laboratories, Shawnee, Kans.) and a helmet of dental acrylic was affixed to the calvarium. Twenty four hours later, the rabbits were anesthetized with ethyl carbamate (1.75 g/kg; Aldrich Chemical Co., Milwaukee, Wis.) and pentobarbital (15 mg/kg; Abbott Laboratories, Abbott Park, Ill.) and placed in a stereotaxic frame. A spinal needle was introduced into the cisterna magna and 300 μl of CSF was withdrawn. The animals were challenged intracisternally with 10^8 heat killed, unencapsulated pneumococcus strain R6 introduced in 200 μl of saline (time 0). One hour later, animals were treated with peptides dissolved in 1 ml of saline by intravenous injection into the right marginal ear vein. The concentration of FHA was 0.1 μM and that of the FHA Ia, Factor X II, and scrambled FHA II peptides was 10 μM. For the acetyl-FHA II, acetyl/amide-FHA II, dimer of FHA II and trimer of FHA II peptides, the concentration was 10^-3 μM. The concentration of FHA II is given in the results section. Samples of CSF were withdrawn at hourly intervals after pneumococcal inoculation and leukocyte density was measured using a cell counter (Coulter Electronics Inc., Hialeah, Fla.). CSF samples were centrifuged at 10,000×g for 5 minutes and the supernatant was stored at -70° C. until assayed for protein concentration using the bicinchoninic acid method (BCA Kit, Pierce Chemical Co., Rockford Ill.) and for lactate concentration (Lactate Detection Kit, Sigma, St. Louis, Mo.). Statistically significant differences between treatments were determined by a one way analysis of variance test.
The anti-inflammatory effects of the administered peptides were assessed in the rabbit model for meningitis by the procedures described in Example 10. The animals received 1 ml of 1 uM peptide intravenously. In a slight departure from the protocol described in Example 10, samples of blood were drawn from the left marginal ear vein 30 minutes after the administration of the peptides to determine peripheral leukocyte concentrations.

The next data set concerns Human neutrophils. The experiment in a line: Binding of 125I-Factor X to neutrophils. As to the method:
Human Factor X (Sigma or Hematologic Technologies Inc.) was labeled with ^125 I using Iodogen (Pierce Chemical Co.) Human neutrophils were isolated from heparinized blood according to the manufacturer's specification using Neutrophil Isolation Medium (Cardinal Associates, Santa Fe, N.M.) and washed three times with 5 mM EDTA-phosphate-buffered saline (PBS), pH 7.2, at 4° C. To eliminate platelet contamination,neutrophils were incubated with autologous serum containing 5 mM EDTA for 30 mins. at 37° C., washed three times with ice-cold PBS, pH 7.2, and resuspended in RPMI 1640 tissue culture medium (Whittaker M. A. Bioproducts, Walkersville, Md.) at 4° C. Binding of ^125 I-Factor X to neutrophils was measured based on a method described by Altieri et al. (1991) Science 254: 1200-1202. Briefly, 200 μl of neutrophils (1.5×10^7 /ml) were supplemented with 17.5 μl of 50 mM CaCl2, stimulated with 3.5 μl of 100 μM NH2 -formyl-Met-Leu-Phe (Sigma), and mixed with 30 μl of 10.3 μg/ml ^125 I-Factor X and 100 μl of 1.75 mM of peptide. Buffer alone and a peptide of scrambled sequence served as controls in each of the 3 experiments. After incubation for 20 mins. at room temperature, neutrophil-bound ^125 I-Factor X was separated from unbound ^125 I-Factor X by centrifugation of 300 μl aliquots through 50 μl of a mixture of Hi phenyl silicone oil DC 550 and methyl silicone oil DC 200 5:1 (Nye Inc. Specialty Lubricants, New Bedford, Mass.) at 12,000×g for 2 mins. Aliquots of the supernatant (cell free ^125 I-Factor X) and the cell pellet (cell bound ^125 I-Factor X) were counted in a gamma-counter. Nonspecific binding (~50,000 cpm) was determined by adding a 100 fold excess of unlabeled Factor X, and subtracted from total radioactivity (~500,000 cpm for controls).

Data set [2] deals with Recognition of C3bi by 12.1F9. Nature of the data set: Peptide inhibition of recognition of C3bi by 12.1F9. It counts as binding.
Another data set has as its system THP-1 cells. Nature of the data set: Generation of Factor Xa by monocytes. It counts as cell-based. The following applies: peptides 0.5 mM. As for the experimental part: Factor Xa generation was determined by a modification of the method of Miletich et al. (1978), J. Biol. Chem. 253: 6908-6916. THP-1 cells (ATCC; 3×10^7 /ml) resuspended in RPMI 1640 (Bio Whittaker, Walkersville, Md.) were incubated with 100 μM ADP (Sigma), 2.5 mM CaCl2, 1 or 5 μg/ml Factor X (Hematologic Technologies Inc.) and 0.5 mM peptides at room temperature. After 20 minutes, 100 μl of the reaction mixture was transferred to 37° C. and supplemented with 100 μl of bovine factor VII- and Factor X-deficient plasma (Sigma). Coagulation was initiated by adding 100 μl of 25 mM CaCl2 and the clotting time was determined. Factor Xa procoagulant activity (ng/ml) was calculated by means of a standard curve constructed by serial concentrations of Factor Xa (Hematologic Technologies Inc.) from 50 to 250 ng/ml.

For data set [3] the following is noted: 50% rabbit plasma at 37° C.
Protocol: To determine the stability of the FHA II peptide, the unmodified or the acetylated-amidated peptide were incubated in 50% rabbit plasma at 37° C.

Usually IC50 stands for the point on the concentration scale where inhibition reaches its midpoint. Take Filamentous hemagglutinin [native FHA]: the entries for the “Total protein in CSF” value in data set [1] (6 hours after intracisternal inoculation of pneumococci) and in data set [1] (7 hours after intracisternal inoculation of pneumococci) were 1.70 ± 0.33 mg/mL and 1.86 ± 0.76 mg/mL, respectively. Besides, the “mean leukocyte concentration/μl CSF” value is reported as “ineffective” in data set [1] (7 hours after challenge, 10^-3 μM i.v.) and 2096±450 /μl CSF in data set [1] (7 hours after challenge, FHA 0.1 μM (25 μg per 2 kg), peptides 10 μM, i.v.). Also, the “mean leukocyte density/μl CSF” value in data set [1] (7 hours after challenge, FHA 0.1 μM (25 μg/animal), peptides 1 ml of 1 uM i.v.) came out at 2096±450 cells/μl CSF. Besides, the “reduction of CSF leukocytosis” value in data set [1] (7 hours, FHA 0.1 μM, peptides 10 μM) is above 60%. The substance also returned a Lactate in data set [1] (FHA 0.1 μM, peptides 10 μM) of 25.0 ± 5.3 mg/100 ml. Moreover, the Protein in data set [1] (FHA 0.1 μM, peptides 10 μM) amounted to 1.3 ± 0.3 mg/ml CSF. For the same substance, the “anti-inflammatory activity at reduced concentration” value in data set [1] (concentrations reduced from 10 to 0.1 μM, FIG. 21) is on record as “more potent anti-inflammatory activity than the corresponding Factor X peptide II”. Also, the “inflammation, numbers of leukocytes in the cerebrospinal fluid” value in data set [1] (intravenous, FIG. 5) was “decreases inflammation”. The “inhibition of 125I-Factor X binding to neutrophils” value in the data set with Human neutrophils (peptides 0.5 mM, native FHA 0.3 μM, mAb IB4 100 μg/ml) amounted to 70±4%. Besides, the IC50 in the data set with Human neutrophils (read-out: IC50 of inhibition of 125I-Factor X binding) came to 100 nM. Moreover, the “block of binding of 12.1F9 to C3bi” value in data set [2] is on record as “blocked binding almost completely”. This substance showed an Adherence index in data set [2] (peptides 50 μg/ml, normalized to a control value of 100) of 16 ± 16.
Consider Ac-ETKEVDG-NH2 [Acetyl/Amide-FHA II], for which the Clotting time in the data set on THP-1 cells was 40.0 ± 3.0 s. The “Factor Xa” value in the data set on THP-1 cells (from standard curve) was 28.5 ng/mL. Moreover, the “leukocytes/μl CSF” value in data set [1] (6 hours post-pneumococcal challenge, 10 nmoles i.v.) was 3011±684 cells/μl. In data set [1] (FHA 0.1 μM, peptides 10 μM), this substance had a Lactate of 24.3 ± 3.2 mg/100 ml and a Protein of 1.2 ± 0.6 mg/ml CSF. The “concentration over time in plasma” value in data set [3] is given as “remained unchanged over 48 hours”.
